{"source": "patent US20020193564A1", "about": "“Oligomeric chaperone proteins” (priority 1999, published 2002)", "key": {"[1]": {"test_system": "AI90 (ΔgroEL::kan^R) [pBADEL] E. coli strain", "test": "Plating ability of AI90 on GroEL depletion at 37° C.", "format": "cell-based", "description": "AI90 (ΔgroEL::kan^R) [pBAD-EL] cells were transformed with the pJC vector series. Transformants were selected at 37° C. on LB supplemented with 50 μg.ml^−1 of kanamycin, 120 μg.mL^−1 of ampicillin, 25 μg.mL^−1 of chloramphenicol and 0.2% L(+)arabinose. Depletion of GroEL protein was analysed at 37° C. by plating the same quantity of AI90 [PBAD-EL+pJC vectors] cells on LB plates containing 1% D(+)glucose or various amount of arabinose.\nEach experiment was performed in triplicate. Plasmids carrying no groE genes or encoding the GroE proteins were used as negative or positive controls, respectively."}, "[2]": {"test_system": "mutant Huntingdon exon 1-expressing PC12 and SH-SY5Y cells", "test": "Inclusion formation and cell death, mutant Huntingdon exon 1", "format": "cell-based", "details": "overexpression", "text": "These phenomena have been studied by transiently transfecting part of Huntingdon exon 1 in COS-7, PC12, and SH-SY5Y cells. Inclusion formation was not seen with constructs expressing 23 glutamines but was repeat length and time dependent for mutant constructs with 43-74 repeats. HSP70, HSP40, the 20S proteasome and ubiquitin colocalized with inclusions. […] Thus, inclusion formation may be enhanced in polyglutamine diseases, if the pathological process results in proteasome inhibition or a heat-shock response. […] To our knowledge, this is the first report of an HSP increasing aggregation of an abnormally folded protein in mammalian cells and expands the current understanding of the roles of HDJ-2yHSDJ in protein folding (See Wyttenbach, A. et al. (2000) Proc. Natl. Acad. Sci. USA 97, 2899-2903).\nWe have tested MC72 in the same system."}}, "data": [{"substance": "GroEL(1-548): key molecular chaperone in Escherichia coli, 14 subunits of 57.5 kD in two seven membered rings", "values": [{"measurement": "Plating ability, 0.00 % L(+)arabinose", "setting": "[1]; 0.00% arabinose", "value": "+++ (growth identical to that in presence of 0.2% L(+)arabinose (100%), in terms of both number and size)"}, {"measurement": "Plating ability, 0.01 % L(+)arabinose", "setting": "[1]; 0.01% arabinose", "value": "+++ (growth identical to that in presence of 0.2% L(+)arabinose (100%), in terms of both number and size)"}, {"measurement": "Plating ability, 0.10 % L(+)arabinose", "setting": "[1]; 0.10% arabinose", "value": "+++ (growth identical to that in presence of 0.2% L(+)arabinose (100%), in terms of both number and size)"}, {"measurement": "Plating ability, 0.15 % L(+)arabinose", "setting": "[1]; 0.15% arabinose", "value": "+++ (growth identical to that in presence of 0.2% L(+)arabinose (100%), in terms of both number and size)"}, {"measurement": "cell death", "setting": "[2]", "value": "no effect"}, {"measurement": "inclusion formation", "setting": "[2]", "value": "no effect"}]}]}
